Where two headings read alike, the source gives them in different places.
Target: T1, human serine racemase (hSR) (Homo sapiens, UniProt Q9GZT4)
T1 construct: 6xHis (C); made in house; host or cells: E. coli BL21 (pET42b-hSR)
T1 sequence (Q9GZT4 1-340): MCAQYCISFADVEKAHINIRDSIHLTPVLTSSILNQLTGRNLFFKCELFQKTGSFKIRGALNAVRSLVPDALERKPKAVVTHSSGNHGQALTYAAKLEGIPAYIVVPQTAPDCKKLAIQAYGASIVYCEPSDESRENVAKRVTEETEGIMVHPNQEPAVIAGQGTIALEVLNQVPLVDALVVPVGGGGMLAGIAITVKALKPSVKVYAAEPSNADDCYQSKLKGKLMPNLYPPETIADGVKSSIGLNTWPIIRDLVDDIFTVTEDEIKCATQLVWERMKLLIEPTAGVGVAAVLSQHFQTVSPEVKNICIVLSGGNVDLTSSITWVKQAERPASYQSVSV
Assay: Two-step enzymatic assay of hSR racemization (hSR, then DAAO/HRP/Amplex Red)
Format: biochemical
Conditions: 0.25 mM ATP
Experimental: This assay was designed by the formation of D-serine by hSR and the oxidation of D-serine by D-amino acid oxidase (DAAO) and horseradish peroxidase (HRP) with the peroxidase substrate Amplex Red^TM (10-acetyl-3,7-dihydroxyphenoxazine) (Thermo Fisher Scientific, Lagoas Park, Porto Salvo, Portugal). The hSR activity assay reaction was carried out in 100 mM HEPES buffer, pH 8.0, containing 2.4 µg of hSR protein, 50 µM PLP, 1 mM MgCl2, 0.25 mM ATP, 400 mM L-serine, and 2 times serially diluted α12G (8 mM to 0.2 µM). Compound-free wells were used as blank controls in the assay. All reactions were performed in duplicates. The reaction mixtures were incubated at 37 °C for 4 h. The reaction was stopped by heating the reaction mixtures at 95 °C for 10 min and storage at 4 °C. A reaction mixture for the second-step enzymatic assay, DAAO assay, with a final volume of 100 µL was made with a 10 µL sample from hSR assay, 45 µM FAD, 10 units of HRP, 60 ng DAAO, 10 mM lead acetate, 10 mM Amplex Red^TM, and 100 mM Tris HCl (pH = 8.5). Lead acetate was used to conjugate α12G as the latter would inhibit the DAAO function in the fluorometric assay, leading to an […] of the effects of α12G on hSR. The fluorescence was detected by the TECAN Infinite 200 Microplate Reader (GMI, MN, USA). The racemization percentage was calculated as follows: racemization % = (Fsample, 20 min − Fsample, 0 min)/(Fblank, 20 min − Fblank, 0 min) × 100%. […] The two-step enzymatic assay described in Section 2.3 was designed by the formation of D-serine by hSR and the consequent oxidation of D-serine by DAAO. The inhibition of DAAO, which also degrades D-serine, by α12G will lead to overestimating the effects of racemization by hSR. […] Therefore, lead acetate was applied to conjugate α12G for the determination of racemization. […] On the contrary, when the concentration of α12G is higher than 2 mM, the racemization activity of hSR is inhibited.

O=C(Oc1cc(C(=O)Oc2cc(C(=O)O[C@H]3OC[C@@H](OC(=O)c4cc(O)c(O)c(OC(=O)c5cc(O)c(O)c(OC(=O)c6cc(O)c(O)c(O)c6)c5)c4)[C@H](OC(=O)c4cc(O)c(O)c(OC(=O)c5cc(O)c(O)c(OC(=O)c6cc(O)c(O)c(O)c6)c5)c4)[C@H]3OC(=O)c3cc(O)c(O)c(OC(=O)c4cc(O)c(O)c(OC(=O)c5cc(O)c(O)c(O)c5)c4)c3)cc(O)c2O)cc(O)c1O)c1cc(O)c(O)c(O)c1 [α12G, (2R,3R,4S,5R)-tetrahydro-2H-pyran-2,3,4,5-tetrayl tetrakis(3-((3,4-dihydroxy-5-((3,4,5-trihydroxybenzoyl)oxy)benzoyl)ox)-4,5-dihydroxybenzoate)] was tested, and the “Concentration above which hSR racemization activity is inhibited” value was “higher than 2 mM”, the “EC100 (concentration of highest racemization activity)” value (400 mM L-serine, lead acetate in second step) was 31.25 µM and the “Enhancement of hSR racemization” value (maximum vs compound-free) was “about 8 fold”. It also gave an EC50 (falling limb of inverted U-shape curve, read-out: EC50 on hSR racemization (progressively inhibiting racemization)) of 221 µM and an EC50 (rising limb of inverted U-shape curve, read-out: EC50 on hSR racemization (favoring racemization)) of 8.82 µM.

— PMC11048566, “The Development of a Regulator of Human Serine Racemase for N-Methyl-D-aspartate Function” (Biomedicines, 2024)
